Test results as given in article PMC6826616, “Topical 2′-Hydroxyflavanone for Cutaneous Melanoma” (Cancers, 2019).

Assays:
B16-F0 cells = assay: EGF-pHrodo endocytosis, B16-F0 (microscopy and flow cytometry); format: cell-based, mouse; conditions: Rlip-antisense, Rlip-shRNA, or 10 µM 2HF for 24 h
Protocol: Figure 3 Effects of Rlip depletion on epidermal growth factor (EGF) endocytosis of mouse melanoma cells. Representative photomicrographs of Rlip-depleted B16-F0 and B16-F10 cells showing the inhibition of EGF-pHrodo endocytosis. […] Rlip was depleted by treating cells with Rlip-antisense, Rlip-shRNA, or 10 µM 2HF for 24 h as described in Materials and Methods section 4.8. Photographs were taken at identical exposures using 200× magnification.
Figure 4 Flow cytometry analysis of EGF-pHrodo endocytosis in control or Rlip depleted B16-F0 cells. Flow cytometry analysis of B16-F0 cells was performed 24 h after Rlip depletion by shRNA, RLIP76-antisense, or treatment with […] 2HF. Cells were stained with EGF-pHrodo. EGF-pHrodo-positive cells as shown on scatter plots were identified and gated based on forward and side scatter properties. The PE channel was used for red fluorescence to measure EGF-pHrodo positivity. […] Each flow cytometry analysis plot is a representative example of three independent experiments. […]
The effect of Rlip knockdown/depletion by shRNA, RLIP76-antisense (R508), or 2HF on endocytosis was studied in B16 melanoma cell lines. […] Slides were analyzed using a fluorescence microscope (Olympus America, Melville, NY, USA). […]
The effect of Rlip knockdown on endocytosis was further checked by flow cytometry. […] After 24 h, cells were trypsinized, washed with cold PBS, and counted. […]

SK-MEL-24 cells = assay: Western blot densitometry of whole-cell lysates, SK-MEL-24; format: cell-based, human; conditions: 48 h
Protocol: Supplemental data for Fig. 2C. Caspase 9
Numbers below of each blot represent protein 1.0 1.2 0.5 ND ND ND ND ND ND band intensity ratios to adequate controls after Procaspase 3 […]
RAL BP- 1 and apoptosis enzymes in SK-Mel-24, B16F0 17kD Active caspase 3 […]
48h. Cells were plated in complete growth medium. After overnight, cells were treated with different doses of 2HF, and PARP-1 incubated for 48h. Total cell lysates (40 µg/lane) were […]
buffer. Proteins were transferred to nitrocellulose C-terminal cleaved membrane, nonspecific binding was done in 1X clear milk, PARP~89kDa
+0.1%T20 (Invitrogen) for 1h at room temperature. All primary antibodies were from (mouse monoclonal, 1.0 0.8 0.9 1.0 0.9 ND 1.0 1.1 ND Santacruze Biotechnology (1:1000), in 1X clear milk
+0.1%T20 overnight in 40C. Secondary antibody from N-terminal cleaved
Santacruze Biotech (1:2000) for 1h at room temperature in PARP~24kDa […]
Supplemental Figure 7 Supplemental data for Fig. 5.
B16F0 SK-Mel- 24 B16F10Numbers below of each blot represent protein band intensity ratios to adequate
TNF-α Full blots are presented in next 4 figures. […]
cells after treatment with 50, 100 µM 2HF for 48h.
Raf-1 Raf-1 Cells were plated in complete growth medium. After overnight, cells were treated with different doses of 2HF, […]
loaded on 4- 12% bis-tris gel, with 1X MES gel running p-MEK-1 p-MEK-1 buffer. Proteins were transferred to nitrocellulose membrane, nonspecific binding was done in 1X clear
All primary antibodies were from (mouse monoclonal, MEKK15 MEKK15 except TNF-α (American Hamster), Santacruze
1.0 0.9 0.1 ND ND ND overnight in 40C. Secondary antibody from Santacruze Biotech (1:2000) for 1h at room temperature in 1X clear […]

O=C1CC(c2ccccc2O)Oc2ccccc21 (stereo not shown) [2HF, 2′-hydroxyflavanone]
EGF-pHrodo endocytosis (fluorescence microscopy) (B16-F0 cells): completely blocked | Active caspase 3 band intensity ratio to control (normalized against β-Actin) (SK-MEL-24 cells; SK-Mel-24, 50 µM 2HF): 0.9 | C-terminal cleaved PARP~89kDa band intensity ratio to control (normalized against β-Actin) (SK-MEL-24 cells; SK-Mel-24, 50 µM 2HF): 0.8 | Caspase 9 band intensity ratio to control (normalized against β-Actin) (SK-MEL-24 cells; SK-Mel-24, 50 µM 2HF): 1.2 | N-terminal cleaved PARP~24kDa band intensity ratio to control (normalized against β-Actin) (SK-MEL-24 cells; SK-Mel-24, 50 µM 2HF): 0.8 | PARP-1 band intensity ratio to control (normalized against β-Actin) (SK-MEL-24 cells; SK-Mel-24, 50 µM 2HF): 0.7 | Procaspase 3 band intensity ratio to control (normalized against β-Actin) (SK-MEL-24 cells; SK-Mel-24, 50 µM 2HF): 0.8 | RAL BP-1 band intensity ratio to control (normalized against β-Actin) (SK-MEL-24 cells; SK-Mel-24, 50 µM 2HF): 0.4 | Raf-1 band intensity ratio to control (normalized against β-Actin) (SK-MEL-24 cells; SK-Mel-24, 50 µM 2HF): 1.7 | TNF-α band intensity ratio to control (normalized against β-Actin) (SK-MEL-24 cells; SK-Mel-24, 50 µM 2HF): 0.4 | p-PDGFR-β band intensity ratio to control (normalized against β-Actin) (SK-MEL-24 cells; SK-Mel-24, 50 µM 2HF): 0.7 | Active caspase 3 band intensity ratio to control (normalized against β-Actin) (SK-MEL-24 cells; SK-Mel-24, 100 µM 2HF): 1.1 | C-terminal cleaved PARP~89kDa band intensity ratio to control (normalized against β-Actin) (SK-MEL-24 cells; SK-Mel-24, 100 µM 2HF): 0.9 | Caspase 9 band intensity ratio to control (normalized against β-Actin) (SK-MEL-24 cells; SK-Mel-24, 100 µM 2HF): 0.5 | N-terminal cleaved PARP~24kDa band intensity ratio to control (normalized against β-Actin) (SK-MEL-24 cells; SK-Mel-24, 100 µM 2HF): 0.4 | PARP-1 band intensity ratio to control (normalized against β-Actin) (SK-MEL-24 cells; SK-Mel-24, 100 µM 2HF): 0.1 | Procaspase 3 band intensity ratio to control (normalized against β-Actin) (SK-MEL-24 cells; SK-Mel-24, 100 µM 2HF): 0.5 | RAL BP-1 band intensity ratio to control (normalized against β-Actin) (SK-MEL-24 cells; SK-Mel-24, 100 µM 2HF): 0.1 | p-PDGFR-β band intensity ratio to control (normalized against β-Actin) (SK-MEL-24 cells; SK-Mel-24, 100 µM 2HF): 0.4
